Results published in US5185257A, “Thermostable xanthine oxidase from Arthrobacter luteus” (Toyo Boseki Kabushiki Kaisha, priority 1990, dated 1993).
Where two headings read alike, the source gives them in different places.

Legend:
[1] = system: Arthrobacter luteus ATCC 21606 thermostable xanthine oxidase (enzyme of the invention); assay: km value of the thermostable xanthine oxidase of the invention; type: biochemical
Description: (§1) 50 mM tris-hydrochloric acid buffer (2.9 ml) and 0.1 ml of a 10 mM aqueous solution of xanthine are mixed, and this mixture is pre-heated at 37° C. After 0.01 ml of enzyme solution is added and gently mixed, the increase of absorbance at 293 nm per minute is determined using a spectrophotometer thermostated at 37° C. with distilled water as the control. The xanthine oxidase activity is expressed on the assumption that the amount of enzyme which produces 1 μmol of uric acid per minute under the conditions described above is taken as 1 unit (U).
as §1, with “After” for “50 mM tris-hydrochloric acid buffer (2.9 ml) and 0.1 ml of a 10 mM aqueous solution of xanthine are mixed, and this mixture is pre-heated at 37° C. After”, “550” for “293”, “quinone imine pigment” for “uric acid”

[2] = system: xanthine oxidase derived from Enterobacter cloacae; assay: km value of the comparative xanthine oxidase from Enterobacter cloacae; type: biochemical; conditions: Table 1, Comparative Example
Description: Determinations were made for conventional xanthine oxidase derived from milk and xanthine oxidase derived from Enterobacter cloacae.

SMILES | Km ([1]; read-out: km value for hypoxanthine, pH 7.5) [µM] | Km ([1]; read-out: km value hypoxanthine, Table 1, enzyme of Example 1) [µM] | Km ([2]; read-out: km value hypoxanthine) [µM] | Km ([1]; Table 1, enzyme of Example 1, read-out: km value xanthine) [µM] | Km ([1]; pH 7.5, read-out: km value for xanthine) [µM] | Km ([2]; read-out: km value xanthine) [µM]
O=c1[nH]cnc2nc[nH]c12 [hypoxanthine] | ~52 | 52 | 83 | – | – | –
O=c1[nH]c(=O)c2[nH]cnc2[nH]1 [xanthine] | – | – | – | 54 | ~54 | 73
